Data: patent US6358885B1, “Substituted phenylheterocyclic herbicides” (Mississippi State University, priority 1992, dated 2002)

What was measured:
Japonica rice [1] = assay: Test E paddy water application plant response rating 0 to 100; type: in vivo, oryza sativa; details: Flood, 0 to 100 scale, approx. 21 days
Method in brief: (§1)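 Greenhouse paddy test: flooded pots of silt loam (water 2 cm over soil) received the solvent-formulated chemical directly in the water.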

umbrella sedge = assay: Test D paddy water application plant response rating 0 to 100; type: in vivo, Cyperus difformis; details: approx. 21 days
Method in brief: (§2)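 Pots are part-filled with silt loam and saturated with water. After planting, the water is raised to 3 cm above the soil and held there. Formulated compound goes straight into the paddy water, and plants are scored visually against controls after about 21 days.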

duck salad = assay: as above; type: in vivo, Heteranthera limosa; details: approx. 21 days
Method in brief: as §2

barnyardgrass [2] = assay: Test E paddy water application plant response rating 0 to 100; type: in vivo, Echinochloa crus-galli; details: Flood, 0 to 100 scale, approx. 21 days
Method in brief: as §1

barnyardgrass [3] = assay: Test D paddy water application plant response rating 0 to 100; type: in vivo, Echinochloa crus-galli; details: approx. 21 days
Method in brief: as §2

Japonica rice [4] = assay: as above; type: in vivo, Oryza sativa; details: approx. 21 days
Method in brief: as §2

arrowhead = assay: as above; type: in vivo, Sagittaria spp.; details: approx. 21 days
Method in brief: as §2

waterchestnut = assay: as above; type: in vivo, Eleocharis spp.; details: approx. 21 days
Text: Plastic pots were partially filled with silt loam soil. The soil was then saturated with water. […] After planting, water levels were raised to 3 cm above the soil surface and maintained at this level throughout the test. Chemical treatments were formulated in a non-phytotoxic solvent and applied directly to the paddy water. Treated plants and controls were maintained in a greenhouse for approximately 21 days, after which all species were compared to controls and visually evaluated. […] A dash (-) response means no test result.

[5] = Rate 500 g/ha, 0 to 100 scale (0 no effect, 100 complete control)

Fc1cc(Cl)ccc1-c1nn2c(c1Br)CCCC2 [Compound 52]
Japonica 1 plant response rating (Japonica rice [1]; Rate 8 g/ha): 0 | Japonica 2 plant response rating (Japonica rice [1]; Rate 8 g/ha): 10 | Japonica 1 plant response rating (Japonica rice [1]; Rate 16 g/ha): 10 | Japonica 2 plant response rating (Japonica rice [1]; Rate 16 g/ha): 15 | Japonica 1 plant response rating (Japonica rice [1]; Rate 32 g/ha): 20 | Japonica 2 plant response rating (Japonica rice [1]; Rate 32 g/ha): 20 | Japonica 1 plant response rating (Japonica rice [1]; Rate 64 g/ha): 35 | Japonica 2 plant response rating (Japonica rice [1]; Rate 64 g/ha): 25 | Japonica 1 plant response rating (Japonica rice [1]; Rate 125 g/ha): 55 | Japonica 2 plant response rating (Japonica rice [1]; Rate 125 g/ha): 40 | Umbrella sedge plant response rating (umbrella sedge; Rate 32 g/ha, 0 to 100 scale): 0 | Umbrella sedge plant response rating (umbrella sedge; Rate 64 g/ha, 0 to 100 scale): 0 | Umbrella sedge plant response rating (umbrella sedge; Rate 125 g/ha, 0 to 100 scale): 20 | Umbrella sedge plant response rating (umbrella sedge; Rate 250 g/ha, 0 to 100 scale): 50 | Umbrella sedge plant response rating (umbrella sedge; [5]): 80 | Duck salad plant response rating (duck salad; Rate 32 g/ha, 0 to 100 scale): 0 | Duck salad plant response rating (duck salad; Rate 64 g/ha, 0 to 100 scale): 10 | Duck salad plant response rating (duck salad; Rate 125 g/ha, 0 to 100 scale): 80 | Duck salad plant response rating (duck salad; Rate 250 g/ha, 0 to 100 scale): 80 | Duck salad plant response rating (duck salad; [5]): 100 | Barnyardgrass 2 plant response rating (barnyardgrass [2]; Rate 8 g/ha): 40 | Barnyardgrass 3 plant response rating (barnyardgrass [2]; Rate 8 g/ha): 35 | Barnyardgrass 2 plant response rating (barnyardgrass [2]; Rate 16 g/ha): 45 | Barnyardgrass 3 plant response rating (barnyardgrass [2]; Rate 16 g/ha): 55 | Barnyardgrass 2 plant response rating (barnyardgrass [2]; Rate 32 g/ha): 100 | Barnyardgrass 3 plant response rating (barnyardgrass [2]; Rate 32 g/ha): 65 | Barnyardgrass 2 plant response rating (barnyardgrass [2]; Rate 64 g/ha): 100 | Barnyardgrass 3 plant response rating (barnyardgrass [2]; Rate 64 g/ha): 100 | Barnyardgrass 2 plant response rating (barnyardgrass [2]; Rate 125 g/ha): 100 | Barnyardgrass 3 plant response rating (barnyardgrass [2]; Rate 125 g/ha): 100 | Barnyardgrass 2 plant response rating (barnyardgrass [3]; Rate 32 g/ha, 0 to 100 scale): 100 | Barnyardgrass 2 plant response rating (barnyardgrass [3]; Rate 64 g/ha, 0 to 100 scale): 100 | Barnyardgrass 2 plant response rating (barnyardgrass [3]; Rate 125 g/ha, 0 to 100 scale): 100 | Barnyardgrass 2 plant response rating (barnyardgrass [3]; Rate 250 g/ha, 0 to 100 scale): 100 | Barnyardgrass 2 plant response rating (barnyardgrass [3]; [5]): 100 | Japonica rice plant response rating (Japonica rice [4]; Rate 32 g/ha, 0 to 100 scale): 20 | Japonica rice plant response rating (Japonica rice [4]; Rate 64 g/ha, 0 to 100 scale): 20 | Japonica rice plant response rating (Japonica rice [4]; Rate 125 g/ha, 0 to 100 scale): 25 | Japonica rice plant response rating (Japonica rice [4]; Rate 250 g/ha, 0 to 100 scale): 25 | Japonica rice plant response rating (Japonica rice [4]; [5]): 30 | Arrowhead plant response rating (arrowhead; Rate 32 g/ha, 0 to 100 scale): 10 | Arrowhead plant response rating (arrowhead; Rate 64 g/ha, 0 to 100 scale): 10 | Arrowhead plant response rating (arrowhead; Rate 125 g/ha, 0 to 100 scale): 40 | Arrowhead plant response rating (arrowhead; Rate 250 g/ha, 0 to 100 scale): 30 | Arrowhead plant response rating (arrowhead; [5]): 40 | Waterchestnut plant response rating (waterchestnut; Rate 32 g/ha, 0 to 100 scale): 0 | Waterchestnut plant response rating (waterchestnut; Rate 64 g/ha, 0 to 100 scale): 15 | Waterchestnut plant response rating (waterchestnut; Rate 125 g/ha, 0 to 100 scale): 25 | Waterchestnut plant response rating (waterchestnut; Rate 250 g/ha, 0 to 100 scale): 40 | Waterchestnut plant response rating (waterchestnut; [5]): 65

COCN1C(=O)COc2cc(F)c(-c3nn4c(c3Cl)CCCC4)cc21 [Compound 55]
Japonica 1 plant response rating (Japonica rice [1]; Rate 8 g/ha): 25 | Japonica 2 plant response rating (Japonica rice [1]; Rate 8 g/ha): 15 | Japonica 1 plant response rating (Japonica rice [1]; Rate 16 g/ha): 75 | Japonica 2 plant response rating (Japonica rice [1]; Rate 16 g/ha): 20 | Japonica 1 plant response rating (Japonica rice [1]; Rate 32 g/ha): 85 | Japonica 2 plant response rating (Japonica rice [1]; Rate 32 g/ha): 25 | Japonica 1 plant response rating (Japonica rice [1]; Rate 64 g/ha): 98 | Japonica 2 plant response rating (Japonica rice [1]; Rate 64 g/ha): 35 | Umbrella sedge plant response rating (umbrella sedge; Rate 4 g/ha, 0 to 100 scale): 0 | Umbrella sedge plant response rating (umbrella sedge; Rate 8 g/ha, 0 to 100 scale): 0 | Umbrella sedge plant response rating (umbrella sedge; Rate 16 g/ha, 0 to 100 scale): 20 | Umbrella sedge plant response rating (umbrella sedge; Rate 32 g/ha, 0 to 100 scale): 80 | Umbrella sedge plant response rating (umbrella sedge; Rate 64 g/ha, 0 to 100 scale): 80 | Duck salad plant response rating (duck salad; Rate 4 g/ha, 0 to 100 scale): 0 | Duck salad plant response rating (duck salad; Rate 8 g/ha, 0 to 100 scale): 0 | Duck salad plant response rating (duck salad; Rate 16 g/ha, 0 to 100 scale): 0 | Duck salad plant response rating (duck salad; Rate 32 g/ha, 0 to 100 scale): 0 | Duck salad plant response rating (duck salad; Rate 64 g/ha, 0 to 100 scale): 10 | Barnyardgrass 2 plant response rating (barnyardgrass [2]; Rate 8 g/ha): 15 | Barnyardgrass 3 plant response rating (barnyardgrass [2]; Rate 8 g/ha): 20 | Barnyardgrass 2 plant response rating (barnyardgrass [2]; Rate 16 g/ha): 70 | Barnyardgrass 3 plant response rating (barnyardgrass [2]; Rate 16 g/ha): 40 | Barnyardgrass 2 plant response rating (barnyardgrass [2]; Rate 32 g/ha): 80 | Barnyardgrass 3 plant response rating (barnyardgrass [2]; Rate 32 g/ha): 50 | Barnyardgrass 2 plant response rating (barnyardgrass [2]; Rate 64 g/ha): 100 | Barnyardgrass 3 plant response rating (barnyardgrass [2]; Rate 64 g/ha): 75 | Barnyardgrass 2 plant response rating (barnyardgrass [3]; Rate 4 g/ha, 0 to 100 scale): 0 | Barnyardgrass 2 plant response rating (barnyardgrass [3]; Rate 8 g/ha, 0 to 100 scale): 0 | Barnyardgrass 2 plant response rating (barnyardgrass [3]; Rate 16 g/ha, 0 to 100 scale): 10 | Barnyardgrass 2 plant response rating (barnyardgrass [3]; Rate 32 g/ha, 0 to 100 scale): 40 | Barnyardgrass 2 plant response rating (barnyardgrass [3]; Rate 64 g/ha, 0 to 100 scale): 100 | Japonica rice plant response rating (Japonica rice [4]; Rate 4 g/ha, 0 to 100 scale): 10 | Japonica rice plant response rating (Japonica rice [4]; Rate 8 g/ha, 0 to 100 scale): 10 | Japonica rice plant response rating (Japonica rice [4]; Rate 16 g/ha, 0 to 100 scale): 20 | Japonica rice plant response rating (Japonica rice [4]; Rate 32 g/ha, 0 to 100 scale): 25 | Japonica rice plant response rating (Japonica rice [4]; Rate 64 g/ha, 0 to 100 scale): 25 | Arrowhead plant response rating (arrowhead; Rate 4 g/ha, 0 to 100 scale): 0 | Arrowhead plant response rating (arrowhead; Rate 8 g/ha, 0 to 100 scale): 0 | Arrowhead plant response rating (arrowhead; Rate 16 g/ha, 0 to 100 scale): 20 | Arrowhead plant response rating (arrowhead; Rate 32 g/ha, 0 to 100 scale): 20 | Arrowhead plant response rating (arrowhead; Rate 64 g/ha, 0 to 100 scale): 30 | Waterchestnut plant response rating (waterchestnut; Rate 4 g/ha, 0 to 100 scale): 0 | Waterchestnut plant response rating (waterchestnut; Rate 8 g/ha, 0 to 100 scale): 0 | Waterchestnut plant response rating (waterchestnut; Rate 16 g/ha, 0 to 100 scale): 10 | Waterchestnut plant response rating (waterchestnut; Rate 32 g/ha, 0 to 100 scale): 15 | Waterchestnut plant response rating (waterchestnut; Rate 64 g/ha, 0 to 100 scale): 20
